The values that follow come from the Kinase Knowledgebase extract (Sharma et al. 2016).

“And” between values parts separate entries of the source, which are not always exact repeats. Identical values can stand only once.

In one assay the target is PIK3CG (UniProt P48736). The assay is described as follows: PIK3-gamma Enzyme Assay.
PIK3CG, sequence (P48736 whole entry, looked up): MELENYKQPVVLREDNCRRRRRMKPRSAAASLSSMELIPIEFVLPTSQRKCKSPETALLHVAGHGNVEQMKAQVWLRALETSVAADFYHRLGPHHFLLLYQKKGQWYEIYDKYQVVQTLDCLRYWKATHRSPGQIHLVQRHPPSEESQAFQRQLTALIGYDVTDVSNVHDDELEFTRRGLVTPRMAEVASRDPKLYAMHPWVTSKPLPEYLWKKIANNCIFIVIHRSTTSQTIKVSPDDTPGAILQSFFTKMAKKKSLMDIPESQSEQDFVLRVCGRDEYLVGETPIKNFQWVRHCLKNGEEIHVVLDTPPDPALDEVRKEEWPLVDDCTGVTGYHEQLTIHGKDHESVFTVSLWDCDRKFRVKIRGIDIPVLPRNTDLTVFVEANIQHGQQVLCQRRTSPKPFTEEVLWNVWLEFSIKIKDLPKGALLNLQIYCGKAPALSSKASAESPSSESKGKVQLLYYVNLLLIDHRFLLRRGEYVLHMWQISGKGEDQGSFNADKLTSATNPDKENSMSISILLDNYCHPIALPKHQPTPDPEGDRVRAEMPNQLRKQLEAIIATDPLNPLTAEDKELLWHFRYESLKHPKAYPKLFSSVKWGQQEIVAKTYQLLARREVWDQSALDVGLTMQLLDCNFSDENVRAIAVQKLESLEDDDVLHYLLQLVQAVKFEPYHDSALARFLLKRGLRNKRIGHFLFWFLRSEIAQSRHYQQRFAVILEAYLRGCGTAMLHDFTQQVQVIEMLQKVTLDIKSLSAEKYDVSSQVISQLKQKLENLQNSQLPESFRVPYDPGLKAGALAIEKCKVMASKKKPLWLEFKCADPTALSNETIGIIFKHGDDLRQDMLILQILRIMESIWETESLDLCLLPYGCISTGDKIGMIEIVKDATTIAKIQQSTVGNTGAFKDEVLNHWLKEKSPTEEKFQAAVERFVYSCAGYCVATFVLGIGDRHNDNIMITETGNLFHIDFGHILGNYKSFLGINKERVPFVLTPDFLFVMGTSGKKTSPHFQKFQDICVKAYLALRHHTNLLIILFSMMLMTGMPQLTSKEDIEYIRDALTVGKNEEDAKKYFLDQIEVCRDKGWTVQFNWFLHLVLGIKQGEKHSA
Compound `O=c1cc(N2CCOCC2)[nH]c2c(OCc3ccccc3)cccc12` showed an IC50 of 2 µM.

Another assay concerns the target PIK3CB;PIK3CA (UniProt P42338). Nature of the assay: PI3-Kinase alpha/beta Inhibition.
In turn, `Cc1cc(Nc2ccc(Cl)cc2)c2nc(N3CCOCC3)cc(=O)n2c1` had an IC50 of 1 µM.

Compound `O=c1cc(N2CCOCC2)nc2c(OCc3ccccc3)cccn12` displayed a half-inhibitory concentration (IC50) of 0.5 µM.

The compound `Cc1cc(Nc2ccc(O)cc2)c2nc(N3CCOCC3)cc(=O)n2c1` registered an IC50 of 0.1 µM.

In turn, `O=c1cc(N2CCOCC2)nc2c(-c3ccccc3)cccn12` registered an IC50 of 10.5 µM.

In turn, `Cc1cc(CNc2ccccc2)c2nc(N3CCOCC3)cc(=O)n2c1` yielded a concentration for half-maximal inhibition (IC50) of 0.05 µM. This IC50 lies about 210-fold lower than the previous one.

Take `O=c1cc(N2CCOCC2)[nH]c2c(Cc3ccccc3)cccc12`: the IC50 was determined as 2 µM.

As for `O=c1cc(N2CCOCC2)nc2c(OCc3ccccn3)cccn12`, the IC50 was found to be 10 µM. Against the preceding compound, the IC50 is about 5-fold higher.

The compound `O=C(O)c1cccc(Oc2cccc3c(=O)cc(N4CCOCC4)[nH]c23)c1` had a half-inhibitory concentration (IC50) of 0.5 µM. Compared with the last compound, the IC50 is about 20-fold lower.

In turn, `Cc1cc(NCc2ccncc2)c2nc(N3CCOCC3)cc(=O)n2c1` returned an IC50 of 0.5 µM. This lies in the sub-micromolar range.

`Cc1cc(Cl)ccc1Oc1cccc2c(=O)cc(N3CCOCC3)[nH]c12` came in with an IC50 of 1 µM.

With `Cc1ccc(Oc2cc(C)cn3c(=O)cc(N4CCOCC4)nc23)cc1`, the IC50 was 1 µM.

In turn, `Cc1cc(-c2ccccc2)c2nc(N3CCOCC3)cc(=O)n2c1` returned an IC50 of 9.8 µM. This IC50 lies about 9.8-fold higher than the previous one.

Compound `Cc1cc(Nc2ccccc2C(F)(F)F)c2nc(N3CCOCC3)cc(=O)n2c1` showed a 50% inhibitory concentration (IC50) of 5 µM.

For `Cc1ccc(Cc2cccc3c(=O)cc(N4CCOCC4)[nH]c23)cc1`, the IC50 worked out at 2 µM.

`Cc1cc(Nc2ccncc2)c2nc(N3CCOCC3)cc(=O)n2c1` displayed an IC50 of 1 µM.

`Cc1cc(NCc2ccccc2)c2nc(N3CCOCC3)cc(=O)n2c1` displayed an IC50 of 0.05 µM.

As for `Cc1cc(Nc2ccc(F)cc2C)c2nc(N3CCOCC3)cc(=O)n2c1`, the IC50 was 0.2 µM.

On to `Cc1c(OCc2ccccc2)ccc2c(=O)cc(N3CCOCC3)oc12`, for which the IC50 turned out to be 10 µM.

The compound `Cc1cc(CCc2ccncc2)c2nc(N3CCOCC3)cc(=O)n2c1` had an IC50 of 1 µM.

The compound `COc1ccccc1CNc1cc(C)cn2c(=O)cc(N3CCOCC3)nc12` displayed an IC50 of 0.05 µM. Compared with the last compound, the IC50 is about 20-fold lower.

`Cc1c(Oc2ccccc2)ccc2c(=O)cc(N3CCOCC3)oc12`: the IC50 was 5 µM and 10 µM and 2 µM.

Take `CC(C)(C)c1ccc(COc2cccn3c(=O)cc(N4CCOCC4)nc23)cc1`: the IC50 was found to be 7.5 µM.

On to `COC(=O)c1cccc(Oc2cccc3c(=O)cc(N4CCOCC4)[nH]c23)c1`, for which the IC50 was found to be 0.5 µM.

Consider `Cc1ccc(S(=O)(=O)Oc2cccc3c(=O)cc(N4CCOCC4)[nH]c23)cc1`, for which the IC50 stood at 1 µM.

With `O=c1cc(N2CCOCC2)oc2c(-c3ccc(F)cc3)cccc12`, the 50% inhibitory concentration (IC50) worked out at 1 µM.

As for `O=c1cc(N2CCOCC2)[nH]c2c(Oc3ccc(F)cc3)cccc12`, the half-inhibitory concentration (IC50) was 0.05 µM.

The compound `O=c1cc(N2CCOCC2)[nH]c2c(Sc3ccccc3)cccc12` gave an IC50 of 0.05 µM.

As to `O=c1cc(N2CCOCC2)nc2c(OCc3cccc(Cl)c3)cccn12`, the half-maximal inhibitory concentration (IC50) is 0.5 µM. This IC50 is about 10-fold higher than that of the compound before.

Consider `Cc1ccc(Oc2cccc3c(=O)cc(N4CCOCC4)[nH]c23)cc1`, for which the IC50 amounted to 0.5 µM.

`Cc1cc(NCc2ccccc2Cl)c2nc(N3CCOCC3)cc(=O)n2c1`: the IC50 was found to be 0.05 µM.

`O=c1cc(N2CCOCC2)oc2c(OCc3cccnc3)cccc12` came in with an IC50 of 1 µM.

`Cc1cc(-c2ccccc2C(F)(F)F)c2nc(N3CCOCC3)cc(=O)n2c1` had an IC50 of 2 µM.

In the case of `O=c1cc(N2CCOCC2)[nH]c2c(Cc3ccc(F)cc3)cccc12`, the IC50 came out at 1 µM.

In turn, `Cc1cc(Oc2cccc3c(=O)cc(N4CCOCC4)oc23)ccc1F` had an IC50 of 0.1 to 0.15 µM.

Compound `O=c1cc(N2CCOCC2)oc2c(-c3ccccc3C(F)(F)F)cccc12` returned a half-maximal inhibitory concentration (IC50) of 0.2 µM.

Regarding `O=c1cc(N2CCOCC2)nc2c(Cc3ccccc3)cccn12`, the IC50 is 1.5 µM.

For the compound `O=c1cc(N2CCOCC2)oc2cc(OCc3cccnc3)ccc12`, the IC50 was 2 µM.

`O=c1cc(N2CCOCC2)oc2cc(/C=C/c3ccccc3)ccc12` showed an IC50 of 10 µM.

For `Cc1cc(F)ccc1Oc1cccc2c(=O)cc(N3CCOCC3)[nH]c12`, the IC50 was 0.02 µM.

`Cc1cc(Nc2ncccc2C)c2nc(N3CCOCC3)cc(=O)n2c1` had an IC50 of 10 µM. This IC50 lies about 500-fold higher than the previous one.

`COc1cccc(COc2cccn3c(=O)cc(N4CCOCC4)nc23)c1`: the half-maximal inhibitory concentration (IC50) amounted to 1 µM.

Take `O=c1cc(N2CCOCC2)oc2c(-c3ccccc3Cl)cccc12`: the concentration for half-maximal inhibition (IC50) was 0.5 µM.

For `Cc1cc(N[C@@H](C)c2ccccc2)c2nc(N3CCOCC3)cc(=O)n2c1`, the IC50 was 1 µM.

In turn, `Cc1cc(CNc2ccc(F)cc2C)c2nc(N3CCOCC3)cc(=O)n2c1` returned a 50% inhibitory concentration (IC50) of 0.01 µM. Against the preceding compound, the IC50 is about 100-fold lower.

For `O=c1cc(N2CCOCC2)[nH]c2c(OCc3ccccc3)cccc12`, the concentration for half-maximal inhibition (IC50) stood at 0.1 µM.

As to `Cc1cc(NCC2CCNCC2)c2nc(N3CCOCC3)cc(=O)n2c1`, the IC50 was 1 µM.

With `O=c1cc(N2CCOCC2)nc2c(OCc3cccnc3)cccn12`, the IC50 was determined as 10 µM.

For `O=c1cc(N2CCOCC2)nc2c(Oc3ccccc3)cccn12`, the half-maximal inhibitory concentration (IC50) came to 1 µM.

The compound `Cc1cc(C2CCN(C)C2=O)c2nc(N3CCOCC3)cc(=O)n2c1` (configuration not stated) returned an IC50 of 20 µM.

As to `O=c1cc(N2CCOCC2)[nH]c2c(Oc3ccccc3)cccc12`, the IC50 was determined as 0.1 µM. This IC50 lies about 200-fold lower than the previous one.

The compound `O=c1cc(N2CCOCC2)oc2c(Cc3ccccc3)cccc12` showed an IC50 of 0.1 µM.

Regarding `Cc1ccccc1-c1cccc2c(=O)cc(N3CCOCC3)oc12`, the half-inhibitory concentration (IC50) worked out at 2 µM.

On to `Cc1cc(NCc2ccccn2)c2nc(N3CCOCC3)cc(=O)n2c1`, for which the half-maximal inhibitory concentration (IC50) is 0.5 µM.

Consider `Cc1cc(N[C@H](C)c2ccccc2)c2nc(N3CCOCC3)cc(=O)n2c1`, for which the IC50 came out at 0.2 µM.

In the case of `Cc1ccccc1Oc1cccc2c(=O)cc(N3CCOCC3)[nH]c12`, the half-maximal inhibitory concentration (IC50) was 0.05 µM.

With `Cc1cc(Nc2ccccc2O)c2nc(N3CCOCC3)cc(=O)n2c1`, the IC50 is 0.2 µM.

Turning to `O=c1cc(N2CCOCC2)oc2c(Oc3ccccc3)cccc12`, the IC50 is 0.1 µM and 0.05 µM.

Compound `Cc1cc(Nc2ccccc2OCCN(C)C)c2nc(N3CCOCC3)cc(=O)n2c1` had a 50% inhibitory concentration (IC50) of 2 µM. This lies in the single-digit micromolar range.

Compound `Cc1cc(-c2ccsc2)c2nc(N3CCOCC3)cc(=O)n2c1` registered a half-maximal inhibitory concentration (IC50) of 1 µM. Compared with the last compound, the IC50 is about 2-fold lower.

With `O=c1cc(N2CCOCC2)oc2c(O)cccc12`, the IC50 came out at 25 µM.

For the compound `Cc1cccn2c(=O)cc(N3CCOCC3)nc12`, the half-maximal inhibitory concentration (IC50) was 11.1 µM.

Take `Cc1cc(NCc2ccc(Cl)cc2)c2nc(N3CCOCC3)cc(=O)n2c1`: the 50% inhibitory concentration (IC50) was 1 µM.

For the compound `O=c1cc(N2CCOCC2)[nH]c2c(Oc3ccccc3F)cccc12`, the half-inhibitory concentration (IC50) came out at 0.15 µM. Compared with the last compound, the IC50 is about 6.7-fold lower.

`Cc1cccc(Oc2cccc3c(=O)cc(N4CCOCC4)[nH]c23)c1` had a half-maximal inhibitory concentration (IC50) of 0.05 µM.

In turn, `Cc1cc(Oc2cccn3c(=O)cc(N4CCOCC4)nc23)ccc1F` had a 50% inhibitory concentration (IC50) of 0.75 µM. Compared with the last compound, the IC50 is about 15-fold higher.

`Cc1cc(Nc2ccc(O)cc2C)c2nc(N3CCOCC3)cc(=O)n2c1`: the concentration for half-maximal inhibition (IC50) turned out to be 0.1 µM.

One may read the IC50 as the point on the concentration scale where inhibition reaches its midpoint. A lower IC50 goes with inhibition by little substance.
